From ChEMBL document CHEMBL5230116, “Recent developments of small molecules with anti-inflammatory activities for the treatment of acute lung injury” (Eur J Med Chem, 2020)

What was measured:
[1] = Inhibition of LPS induced TNF-alpha expression in ICR mouse peritoneal macrophage at 10 uM incubated for 30 mins followed by LPS stimulation measured after 24 hrs by ELISA assay relative to control; format: functional
[2] = Inhibition of LPS induced IL-6 expression in ICR mouse peritoneal macrophage at 10 uM incubated for 30 mins followed by LPS stimulation measured after 24 hrs by ELISA assay relative to control; format: functional
[3] = target: Matrix metalloproteinase-9 (Homo sapiens, UniProt P14780); test: Inhibition of MMP-9 (unknown origin)
[4] = target: T1, 72 kDa type IV collagenase (Homo sapiens, UniProt P08253); test: Inhibition of MMP-2 (unknown origin)
[5] = Half life in rat at 3 mg/kg, po; format: ADME, organism-based; conditions: in vivo
[6] = Oral bioavailability in rat at 3 mg/kg; format: ADME, organism-based; conditions: in vivo
RAW264.7 = test: Inhibition of NO production in LPS stimulated mouse RAW264.7 cells incubated for 1 hr by Griess reagent based assay; format: functional, cell-based; conditions: RAW264.7, 1 h
[7] = Inhibition of TNF-alpha expression in LPS stimulated mouse RAW264.7 cells incubated for 1 hr by ELISA assay; format: functional, cell-based; conditions: RAW264.7, 1 h
[8] = Inhibition of IL-6 expression in LPS stimulated mouse RAW264.7 cells incubated for 1 hr by ELISA assay; format: functional, cell-based; conditions: RAW264.7, 1 h
Neutrophil collagenase = Neutrophil collagenase (Homo sapiens, UniProt P22894); test: Inhibition of recombinant human MMP-8 using QF24 as substrate incubated for 3 hrs by spectrofluorometer assay
[9] = target: T1, 72 kDa type IV collagenase; test: Inhibition of recombinant human MMP-2 using QF24 as substrate incubated for 3 hrs by spectrofluorometer assay

T1 sequence (P08253 whole entry): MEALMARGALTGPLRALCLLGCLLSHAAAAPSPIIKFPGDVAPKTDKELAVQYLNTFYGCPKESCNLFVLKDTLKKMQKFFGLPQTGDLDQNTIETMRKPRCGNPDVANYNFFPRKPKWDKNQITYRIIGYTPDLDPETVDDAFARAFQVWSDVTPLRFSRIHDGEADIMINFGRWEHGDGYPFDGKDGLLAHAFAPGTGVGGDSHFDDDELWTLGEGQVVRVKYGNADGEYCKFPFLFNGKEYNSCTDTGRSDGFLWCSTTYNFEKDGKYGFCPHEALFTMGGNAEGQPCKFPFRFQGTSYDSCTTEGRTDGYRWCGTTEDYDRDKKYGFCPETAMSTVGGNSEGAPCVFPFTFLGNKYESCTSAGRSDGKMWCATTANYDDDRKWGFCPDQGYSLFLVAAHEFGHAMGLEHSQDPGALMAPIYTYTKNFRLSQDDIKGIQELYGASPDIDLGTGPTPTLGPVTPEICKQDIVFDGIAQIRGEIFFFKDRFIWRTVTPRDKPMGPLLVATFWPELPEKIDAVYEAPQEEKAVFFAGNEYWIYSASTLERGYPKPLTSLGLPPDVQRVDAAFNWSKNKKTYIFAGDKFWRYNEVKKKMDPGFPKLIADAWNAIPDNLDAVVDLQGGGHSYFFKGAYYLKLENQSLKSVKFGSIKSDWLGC
Chain of Neutrophil collagenase (P22894 whole entry): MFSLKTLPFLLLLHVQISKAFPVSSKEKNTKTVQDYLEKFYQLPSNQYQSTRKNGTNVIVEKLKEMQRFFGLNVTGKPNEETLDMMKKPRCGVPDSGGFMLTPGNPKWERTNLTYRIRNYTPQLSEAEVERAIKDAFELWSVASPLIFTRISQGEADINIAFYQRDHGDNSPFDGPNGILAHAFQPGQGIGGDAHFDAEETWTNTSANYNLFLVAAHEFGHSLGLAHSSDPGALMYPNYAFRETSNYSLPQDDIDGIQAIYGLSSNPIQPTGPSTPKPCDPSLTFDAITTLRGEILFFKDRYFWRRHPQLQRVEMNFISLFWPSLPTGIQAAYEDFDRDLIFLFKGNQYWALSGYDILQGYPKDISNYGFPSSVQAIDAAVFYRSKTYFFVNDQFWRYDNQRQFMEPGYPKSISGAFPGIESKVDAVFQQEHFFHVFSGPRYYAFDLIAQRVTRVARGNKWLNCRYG
Chain of Matrix metalloproteinase-9 (P14780 whole entry): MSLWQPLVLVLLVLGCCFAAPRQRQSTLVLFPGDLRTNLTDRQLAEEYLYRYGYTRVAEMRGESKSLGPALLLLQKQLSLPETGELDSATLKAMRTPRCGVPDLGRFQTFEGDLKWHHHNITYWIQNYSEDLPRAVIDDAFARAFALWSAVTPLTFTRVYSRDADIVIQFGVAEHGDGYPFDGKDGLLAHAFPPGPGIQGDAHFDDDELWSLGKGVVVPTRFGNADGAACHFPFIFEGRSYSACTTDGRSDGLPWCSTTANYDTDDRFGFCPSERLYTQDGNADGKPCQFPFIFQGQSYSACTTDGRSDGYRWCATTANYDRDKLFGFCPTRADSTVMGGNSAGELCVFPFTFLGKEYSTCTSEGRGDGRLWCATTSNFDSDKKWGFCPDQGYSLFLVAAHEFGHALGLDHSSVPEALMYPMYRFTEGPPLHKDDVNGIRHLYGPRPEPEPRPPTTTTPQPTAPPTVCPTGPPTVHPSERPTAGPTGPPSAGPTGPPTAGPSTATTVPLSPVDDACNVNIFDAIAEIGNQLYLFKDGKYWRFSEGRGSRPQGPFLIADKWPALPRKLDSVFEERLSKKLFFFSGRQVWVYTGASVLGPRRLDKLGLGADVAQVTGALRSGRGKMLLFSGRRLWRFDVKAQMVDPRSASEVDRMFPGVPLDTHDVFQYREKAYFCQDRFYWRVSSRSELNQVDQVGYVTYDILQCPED

COc1cc(/C=C2\Cc3ccc(O)cc3C2=O)ccc1O
inhibition at 10 µM [1]: 83.7% | inhibition at 10 µM [2]: 69.3%

COc1cc(/C=C2\Cc3cc(OC)c(OC)cc3C2=O)ccc1O
inhibition at 10 µM [1]: 79.3% | inhibition at 10 µM [2]: 81.4%

O=C1NC(=O)C(O)(CC(=O)c2ccc(NS(=O)(=O)c3ccc(C(F)(F)F)cc3)cc2)C(=O)N1
IC50 [3]: 0.00824 µM | IC50 [4]: 0.00235 µM

Cc1coc2c1C(=O)c1c3c-2ccc2c3c(n1Cc1ccccc1)C(=O)CC2(C)C
half-life [5]: 4.05 h | bioavailability [6]: 30.2%

CCCc1nn(C)c2c(NCCCN3CCOCC3)nc(/C=C/c3cc(OC)c(OC)c(OC)c3)nc12
IC50 (RAW264.7): 2.64 µM | IC50 [7]: 5.63 µM | IC50 [8]: 4.38 µM

CCCOc1cccc2c1C(=O)/C(=C/c1ccc(O)c(OC)c1)C2
inhibition at 10 µM [1]: 72% | inhibition at 10 µM [2]: 84.9%

O=C(CCN1CCN(Cc2ccccc2)CC1)Nc1nc(-c2ccccc2)cs1
IC50 (Neutrophil collagenase): 11.9 µM | IC50 [9]: 10.2 µM

O=C(CN1CCN(c2ccccc2)CC1)Nc1nc(-c2ccc(F)cc2)cs1
IC50 (Neutrophil collagenase): 2.34 µM | IC50 [9]: 4.22 µM

Cc1coc2c1C(=O)C(=O)c1c-2ccc2c1CCCC2(C)C [TANSHINONE IIA]
half-life [5]: 0.34 h | bioavailability [6]: < 3.5%
